Measured values published in ChEMBL document CHEMBL5038588 (J Med Chem, 2021).

Key:
BaF3 [1] = assay: Inhibition of cell proliferation in mouse BaF3 cells expressing BCR-ABL T315I mutant assessed as cell viability at 100 uM measured after 48 hrs by trypan blue based assay (RVB=100%); assay type: functional; details: read-out: Activity
BaF3 [2] = assay: cells; details: Mus musculus, BaF3, 48 h
Description: Cytotoxicity against mouse BAF3 cells expressing BCR-ABL T315I mutant assessed as inhibition of cell growth measured after 48 hrs by trypan blue assay

Jurkat = assay: Cytotoxicity against human Jurkat cells assessed as inhibition of cell growth measured after 72 hrs by MTT assay; assay type: functional, cell-based
U-937 = assay: Cytotoxicity against human U-937 cells assessed as inhibition of cell growth measured after 72 hrs by MTT assay; assay type: functional, cell-based; details: U-937, 72 h
K562 = assay: cells; details: Homo sapiens, K562, 72 h
Description: Cytotoxicity against human K562 cells assessed as cell growth inhibition measured after 72 hrs by MTT assay

BaF3 [3] = assay: cells; details: Mus musculus, BaF3, 72 h
Description: Cytotoxicity against mouse BAF3 cells expressing native BCR-ABL assessed as inhibition of cell growth measured after 72 hrs by MTT assay

KU812 cell line = assay: Cytotoxicity against human KU812 cells assessed as inhibition of cell growth measured after 72 hrs by MTT assay; assay type: functional, cell-based; details: KU812, 72 h
[4] = AUC (0 to t) in ICR mouse at 15 mg/kg, po measured upto 24 hrs by LC/MS/MS analysis; assay type: ADME, organism-based; set-up: route oral, dose 15 mg/kg, time <=24; details: in vivo
[5] = AUC (0 to infinity) in ICR mouse at 5 mg/kg, iv measured upto 24 hrs by LC/MS/MS analysis; assay type: ADME, organism-based; set-up: route intravenous, dose 5 mg/kg, time <=24; details: in vivo
Salmonella typhimurium [6] = assay: Mutagenecity in Salmonella typhimurium TA98 at 0.5 to 312.5 ug/ml incubated for 42 to 72 hrs in presence of S9 fraction by Ames test; assay type: toxicity, organism-based; details: salmonella enterica subsp. enterica serovar typhimurium, dose lower 0.5 µg/ml, time lower 42 hrs, dose upper 312.5 µg/ml, time upper 72 hrs
[7] = molecular target: Proto-oncogene tyrosine-protein kinase Src (Homo sapiens, UniProt P12931); assay: Inhibition of human c-SRC using poly [Glu:Tyr] as substrate incubated for 30 mins followed by 33P-ATP addition and measured after 2 hrs by liquid scintillation counter method
[8] = MRT in ICR mouse at 15 mg/kg, po measured upto 24 hrs by LC/MS/MS analysis; assay type: ADME, organism-based; details: in vivo
[9] = Cmax in ICR mouse at 5 mg/kg, iv measured upto 24 hrs by LC/MS/MS analysis; assay type: ADME, organism-based; set-up: route intravenous, dose 5 mg/kg, time <=24; details: in vivo
Salmonella typhimurium [10] = assay: Mutagenecity in Salmonella typhimurium TA100 at 0.5 to 312.5 ug/ml incubated for 42 to 72 hrs in presence of S9 fraction by Ames test; assay type: toxicity, organism-based; details: salmonella enterica subsp. enterica serovar typhimurium, dose lower 0.5 µg/ml, time lower 42 hrs, dose upper 312.5 µg/ml, time upper 72 hrs
[11] = molecular target: Platelet-derived growth factor receptor alpha (Homo sapiens, UniProt P16234); assay: Inhibition of human PDGFRa using poly [Glu:Tyr] as substrate incubated for 30 mins followed by 33P-ATP addition and measured after 2 hrs by liquid scintillation counter method
Salmonella typhimurium [12] = assay: Mutagenecity in Salmonella typhimurium TA97a at 0.5 to 312.5 ug/ml incubated for 42 to 72 hrs in presence of S9 fraction by Ames test; assay type: toxicity, organism-based; details: salmonella enterica subsp. enterica serovar typhimurium, dose lower 0.5 µg/ml, time lower 42 hrs, dose upper 312.5 µg/ml, time upper 72 hrs
[13] = Half life in ICR mouse at 5 mg/kg, iv measured upto 24 hrs by LC/MS/MS analysis; assay type: ADME, organism-based; details: in vivo
[14] = molecular target: Tyrosine-protein kinase Lyn (Homo sapiens, UniProt P07948); assay: Inhibition of human LYN using poly [Glu:Tyr] as substrate incubated for 30 mins followed by 33P-ATP addition and measured after 2 hrs by liquid scintillation counter method
[15] = Genotoxicity in ICR mouse bone marrow at 25 to 100 mg/kg administered via oral gavage and measured after 24 to 48 hrs by micronucleus assay; assay type: toxicity, organism-based; details: in vivo, dose lower 25 mg/kg, time lower 24 hrs, dose upper 100 mg/kg, time upper 48 hrs
[16] = AUC (0 to t) in ICR mouse at 5 mg/kg, iv measured upto 24 hrs by LC/MS/MS analysis; assay type: ADME, organism-based; set-up: route intravenous, dose 5 mg/kg, time <=24; details: in vivo
[17] = Oral bioavailability in ICR mouse at 15 mg/kg measured upto 24 hrs by LC/MS/MS analysis; assay type: ADME, organism-based; details: in vivo
Salmonella typhimurium [18] = assay: Mutagenecity in Salmonella typhimurium TA102 at 0.5 to 312.5 ug/ml incubated for 42 to 72 hrs in presence of S9 fraction by Ames test; assay type: toxicity, organism-based; details: salmonella enterica subsp. enterica serovar typhimurium, dose lower 0.5 µg/ml, time lower 42 hrs, dose upper 312.5 µg/ml, time upper 72 hrs
[19] = MRT in ICR mouse at 5 mg/kg, iv measured upto 24 hrs by LC/MS/MS analysis; assay type: ADME, organism-based; details: in vivo
[20] = Toxicity in ICR mouse assessed as maximum tolerated dose administered as single oral dose for 14 days; details: in vivo, time 14 day
[21] = Half life in ICR mouse at 15 mg/kg, po measured upto 24 hrs by LC/MS/MS analysis; assay type: ADME, organism-based; details: in vivo
[22] = AUC (0 to infinity) in ICR mouse at 15 mg/kg, po measured upto 24 hrs by LC/MS/MS analysis; assay type: ADME, organism-based; set-up: route oral, dose 15 mg/kg, time <=24; details: in vivo
[23] = molecular target: Voltage-gated inwardly rectifying potassium channel KCNH2 (Homo sapiens, UniProt Q12809); assay: Inhibition of hERG; assay type: toxicity
[24] = Tmax in ICR mouse at 5 mg/kg, iv measured upto 24 hrs by LC/MS/MS analysis; assay type: ADME, organism-based; details: in vivo
[25] = Tmax in ICR mouse at 15 mg/kg, po measured upto 24 hrs by LC/MS/MS analysis; assay type: ADME, organism-based; details: in vivo
[26] = Clearance in ICR mouse at 5 mg/kg, iv measured upto 24 hrs by LC/MS/MS analysis; assay type: ADME, organism-based; details: in vivo
Salmonella typhimurium [27] = assay: Mutagenecity in Salmonella typhimurium TA1535 at 0.5 to 312.5 ug/ml incubated for 42 to 72 hrs in presence of S9 fraction by Ames test; assay type: toxicity, organism-based; details: salmonella enterica subsp. enterica serovar typhimurium, dose lower 0.5 µg/ml, time lower 42 hrs, dose upper 312.5 µg/ml, time upper 72 hrs
[28] = Volume of distribution at steady state in ICR mouse at 5 mg/kg, iv measured upto 24 hrs by LC/MS/MS analysis; assay type: ADME, organism-based; details: in vivo, read-out: Vdss
[29] = molecular target: Vascular endothelial growth factor receptor 2 (Homo sapiens, UniProt P35968); assay: Inhibition of human KDR/VEGFR2 using poly [Glu:Tyr] as substrate incubated for 30 mins followed by 33P-ATP addition and measured after 2 hrs by liquid scintillation counter method
[30] = Cmax in ICR mouse at 15 mg/kg, po measured upto 24 hrs by LC/MS/MS analysis; assay type: ADME, organism-based; set-up: route oral, dose 15 mg/kg, time <=24; details: in vivo
[31] = molecular target: T1, Receptor-type tyrosine-protein kinase FLT3 (Homo sapiens, UniProt P36888); assay: Inhibition of human FLT3 using EAIYAAPFAKKK as substrate incubated for 30 mins followed by 33P-ATP addition and measured after 2 hrs by liquid scintillation counter method
T1 sequence (P36888 whole entry): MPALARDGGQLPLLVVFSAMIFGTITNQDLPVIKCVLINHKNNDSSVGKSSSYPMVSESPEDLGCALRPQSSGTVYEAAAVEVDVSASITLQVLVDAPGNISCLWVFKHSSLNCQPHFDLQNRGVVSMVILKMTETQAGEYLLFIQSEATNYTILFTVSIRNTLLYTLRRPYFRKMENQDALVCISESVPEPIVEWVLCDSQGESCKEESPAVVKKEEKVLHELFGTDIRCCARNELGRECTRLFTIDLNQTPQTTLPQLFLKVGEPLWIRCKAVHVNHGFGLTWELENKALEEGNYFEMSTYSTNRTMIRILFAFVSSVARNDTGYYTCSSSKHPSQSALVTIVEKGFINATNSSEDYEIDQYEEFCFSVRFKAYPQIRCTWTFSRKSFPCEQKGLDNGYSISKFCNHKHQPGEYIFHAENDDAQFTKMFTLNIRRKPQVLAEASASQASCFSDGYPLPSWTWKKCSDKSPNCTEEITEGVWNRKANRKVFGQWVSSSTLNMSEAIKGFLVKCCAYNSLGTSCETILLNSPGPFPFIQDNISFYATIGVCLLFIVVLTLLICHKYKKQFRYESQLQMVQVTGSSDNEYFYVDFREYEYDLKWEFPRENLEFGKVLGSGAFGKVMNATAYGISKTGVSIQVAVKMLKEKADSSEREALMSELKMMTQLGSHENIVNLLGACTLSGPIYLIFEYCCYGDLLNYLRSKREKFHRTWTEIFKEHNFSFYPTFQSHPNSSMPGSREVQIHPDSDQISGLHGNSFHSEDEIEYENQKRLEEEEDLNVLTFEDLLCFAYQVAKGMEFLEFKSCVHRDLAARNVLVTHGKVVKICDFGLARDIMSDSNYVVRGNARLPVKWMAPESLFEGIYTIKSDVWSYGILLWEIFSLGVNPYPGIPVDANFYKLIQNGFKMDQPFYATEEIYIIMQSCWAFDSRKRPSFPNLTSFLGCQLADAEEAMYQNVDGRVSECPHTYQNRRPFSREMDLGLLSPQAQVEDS

[32] = Toxicity in BALB/c nude mouse xenografted with BaF3 cells expressing BCR-ABL T315I mutant assessed as effect on body weight at 2.5 to 10 mg/kg, po administered once daily for 15 days; assay type: organism-based; details: in vivo, 360 h, dose 2.5-10 mg/kg, time 15 day

Tyrosine-protein kinase Lyn, sequence (P07948 whole entry): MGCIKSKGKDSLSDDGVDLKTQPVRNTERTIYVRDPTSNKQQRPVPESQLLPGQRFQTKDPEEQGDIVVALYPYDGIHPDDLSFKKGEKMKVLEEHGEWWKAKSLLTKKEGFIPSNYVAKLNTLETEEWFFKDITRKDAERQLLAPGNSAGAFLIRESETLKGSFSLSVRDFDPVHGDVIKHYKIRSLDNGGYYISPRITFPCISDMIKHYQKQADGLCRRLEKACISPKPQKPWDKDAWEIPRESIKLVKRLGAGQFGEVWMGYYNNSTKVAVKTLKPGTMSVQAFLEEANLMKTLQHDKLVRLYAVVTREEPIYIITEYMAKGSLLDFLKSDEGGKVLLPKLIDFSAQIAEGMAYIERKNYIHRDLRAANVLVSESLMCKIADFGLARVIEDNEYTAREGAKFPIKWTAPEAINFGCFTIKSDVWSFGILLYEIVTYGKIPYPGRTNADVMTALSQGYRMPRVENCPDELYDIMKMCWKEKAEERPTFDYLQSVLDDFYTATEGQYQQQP
Platelet-derived growth factor receptor alpha, sequence (P16234 whole entry): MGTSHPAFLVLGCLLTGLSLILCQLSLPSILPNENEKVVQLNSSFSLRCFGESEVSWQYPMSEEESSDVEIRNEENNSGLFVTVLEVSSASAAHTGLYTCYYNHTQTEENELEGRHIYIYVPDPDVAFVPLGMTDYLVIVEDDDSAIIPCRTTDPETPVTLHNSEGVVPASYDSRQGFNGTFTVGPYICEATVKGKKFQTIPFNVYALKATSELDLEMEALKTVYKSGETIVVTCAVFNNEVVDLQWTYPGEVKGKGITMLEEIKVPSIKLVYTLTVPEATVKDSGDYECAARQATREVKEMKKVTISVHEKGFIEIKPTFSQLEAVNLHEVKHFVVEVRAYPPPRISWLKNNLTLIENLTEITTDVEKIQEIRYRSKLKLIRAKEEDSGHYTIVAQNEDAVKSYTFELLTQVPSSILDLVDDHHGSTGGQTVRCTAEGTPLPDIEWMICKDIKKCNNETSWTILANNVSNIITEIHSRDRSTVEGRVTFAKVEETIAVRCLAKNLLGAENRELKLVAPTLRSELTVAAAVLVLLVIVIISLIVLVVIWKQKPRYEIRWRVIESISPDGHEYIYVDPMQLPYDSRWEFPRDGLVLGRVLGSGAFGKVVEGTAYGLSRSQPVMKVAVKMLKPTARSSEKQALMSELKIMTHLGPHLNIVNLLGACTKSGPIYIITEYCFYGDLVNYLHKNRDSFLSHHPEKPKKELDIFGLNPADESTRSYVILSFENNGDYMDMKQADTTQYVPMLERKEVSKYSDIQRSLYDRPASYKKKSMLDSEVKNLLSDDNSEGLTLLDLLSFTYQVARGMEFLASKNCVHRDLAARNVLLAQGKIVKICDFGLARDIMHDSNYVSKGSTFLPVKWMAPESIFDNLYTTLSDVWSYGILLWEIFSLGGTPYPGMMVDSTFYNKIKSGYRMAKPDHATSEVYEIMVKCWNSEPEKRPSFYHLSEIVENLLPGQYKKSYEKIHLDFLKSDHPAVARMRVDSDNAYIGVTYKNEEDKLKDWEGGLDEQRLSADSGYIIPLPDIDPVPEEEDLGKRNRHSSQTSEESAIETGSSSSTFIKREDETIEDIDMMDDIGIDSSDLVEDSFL
Vascular endothelial growth factor receptor 2, sequence (P35968 whole entry): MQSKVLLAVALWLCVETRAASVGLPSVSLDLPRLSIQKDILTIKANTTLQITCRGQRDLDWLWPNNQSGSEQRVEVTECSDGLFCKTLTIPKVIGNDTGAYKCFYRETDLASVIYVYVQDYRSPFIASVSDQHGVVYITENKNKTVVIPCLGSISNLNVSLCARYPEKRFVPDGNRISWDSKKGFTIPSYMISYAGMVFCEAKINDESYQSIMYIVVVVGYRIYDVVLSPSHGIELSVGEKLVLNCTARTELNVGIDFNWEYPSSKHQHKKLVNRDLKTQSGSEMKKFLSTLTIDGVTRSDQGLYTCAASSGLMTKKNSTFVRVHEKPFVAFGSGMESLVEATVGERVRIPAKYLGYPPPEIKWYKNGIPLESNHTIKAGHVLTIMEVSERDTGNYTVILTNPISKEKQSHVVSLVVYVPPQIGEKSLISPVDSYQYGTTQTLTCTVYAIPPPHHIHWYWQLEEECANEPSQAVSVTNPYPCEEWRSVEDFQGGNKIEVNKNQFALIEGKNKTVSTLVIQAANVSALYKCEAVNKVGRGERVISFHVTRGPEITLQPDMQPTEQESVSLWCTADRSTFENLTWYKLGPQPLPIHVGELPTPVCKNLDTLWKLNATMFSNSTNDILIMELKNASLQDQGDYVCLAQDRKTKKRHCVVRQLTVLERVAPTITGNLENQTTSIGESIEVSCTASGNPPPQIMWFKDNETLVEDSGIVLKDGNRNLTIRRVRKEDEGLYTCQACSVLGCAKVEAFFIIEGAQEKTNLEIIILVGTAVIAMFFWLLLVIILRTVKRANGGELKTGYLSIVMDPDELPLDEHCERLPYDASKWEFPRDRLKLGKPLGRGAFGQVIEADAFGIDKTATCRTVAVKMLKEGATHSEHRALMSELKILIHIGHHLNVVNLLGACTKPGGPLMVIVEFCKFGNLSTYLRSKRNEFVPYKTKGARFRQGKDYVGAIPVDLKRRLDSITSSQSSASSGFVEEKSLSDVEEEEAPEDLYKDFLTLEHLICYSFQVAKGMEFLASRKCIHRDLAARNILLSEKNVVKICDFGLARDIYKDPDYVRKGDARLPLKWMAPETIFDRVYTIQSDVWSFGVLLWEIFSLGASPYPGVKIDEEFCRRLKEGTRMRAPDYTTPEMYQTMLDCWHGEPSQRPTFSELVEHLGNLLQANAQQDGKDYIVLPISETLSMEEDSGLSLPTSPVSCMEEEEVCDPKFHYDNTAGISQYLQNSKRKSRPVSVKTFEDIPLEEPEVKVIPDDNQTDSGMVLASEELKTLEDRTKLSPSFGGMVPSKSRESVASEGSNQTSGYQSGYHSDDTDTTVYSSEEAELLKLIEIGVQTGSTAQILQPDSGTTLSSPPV
Voltage-gated inwardly rectifying potassium channel KCNH2, sequence (Q12809 whole entry): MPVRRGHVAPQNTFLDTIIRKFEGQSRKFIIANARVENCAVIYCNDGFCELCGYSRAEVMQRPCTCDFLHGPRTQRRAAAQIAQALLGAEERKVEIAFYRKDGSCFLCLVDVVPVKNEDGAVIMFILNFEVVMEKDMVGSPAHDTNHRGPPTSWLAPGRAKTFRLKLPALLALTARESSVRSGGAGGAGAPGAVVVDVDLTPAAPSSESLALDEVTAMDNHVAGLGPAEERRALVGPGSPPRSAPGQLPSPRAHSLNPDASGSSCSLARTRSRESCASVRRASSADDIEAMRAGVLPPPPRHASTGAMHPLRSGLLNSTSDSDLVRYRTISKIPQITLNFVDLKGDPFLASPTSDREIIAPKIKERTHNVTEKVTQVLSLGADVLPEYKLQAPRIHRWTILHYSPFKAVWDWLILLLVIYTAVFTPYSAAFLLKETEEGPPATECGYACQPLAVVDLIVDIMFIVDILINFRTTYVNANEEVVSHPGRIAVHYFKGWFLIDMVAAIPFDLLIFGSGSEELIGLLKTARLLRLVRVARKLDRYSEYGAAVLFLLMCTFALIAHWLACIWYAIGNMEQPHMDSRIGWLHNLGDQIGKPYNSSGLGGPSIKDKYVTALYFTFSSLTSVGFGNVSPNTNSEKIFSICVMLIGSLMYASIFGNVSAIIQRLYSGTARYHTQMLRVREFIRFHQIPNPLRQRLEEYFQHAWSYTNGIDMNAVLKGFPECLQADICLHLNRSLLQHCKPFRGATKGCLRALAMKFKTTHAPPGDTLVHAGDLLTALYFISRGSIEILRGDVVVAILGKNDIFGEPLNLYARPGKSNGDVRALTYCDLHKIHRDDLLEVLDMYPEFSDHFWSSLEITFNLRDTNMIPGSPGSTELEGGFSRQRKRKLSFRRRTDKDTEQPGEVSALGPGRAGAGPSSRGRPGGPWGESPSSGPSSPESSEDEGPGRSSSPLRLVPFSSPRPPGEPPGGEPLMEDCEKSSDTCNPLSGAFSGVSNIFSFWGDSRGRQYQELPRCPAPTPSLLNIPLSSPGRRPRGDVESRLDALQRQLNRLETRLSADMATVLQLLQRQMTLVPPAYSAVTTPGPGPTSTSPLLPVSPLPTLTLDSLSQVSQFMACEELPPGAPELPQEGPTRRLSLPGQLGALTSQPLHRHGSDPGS
Proto-oncogene tyrosine-protein kinase Src, sequence (P12931 2-536 limits assumed): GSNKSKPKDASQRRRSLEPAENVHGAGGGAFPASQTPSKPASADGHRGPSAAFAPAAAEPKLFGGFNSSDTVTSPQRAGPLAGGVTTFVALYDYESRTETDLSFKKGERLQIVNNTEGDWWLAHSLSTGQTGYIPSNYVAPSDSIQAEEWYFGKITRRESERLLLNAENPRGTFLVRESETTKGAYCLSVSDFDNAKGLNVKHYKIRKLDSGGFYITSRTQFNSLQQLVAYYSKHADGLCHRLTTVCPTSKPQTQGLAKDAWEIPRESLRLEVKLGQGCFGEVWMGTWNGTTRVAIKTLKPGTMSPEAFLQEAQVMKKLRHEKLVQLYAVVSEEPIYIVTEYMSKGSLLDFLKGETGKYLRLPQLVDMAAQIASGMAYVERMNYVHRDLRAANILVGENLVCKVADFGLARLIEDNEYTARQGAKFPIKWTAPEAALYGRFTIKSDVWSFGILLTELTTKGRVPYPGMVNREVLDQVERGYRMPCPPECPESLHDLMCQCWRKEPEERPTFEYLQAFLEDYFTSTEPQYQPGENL

SMILES: CC(C)Nc1ccc(C#Cc2cc(-c3nc4ccc(CN5CCN(C)CC5)cc4[nH]3)ccc2Cl)nn1
- viability at 100 µM (BaF3 [1]): 100%

SMILES: Cc1ccc(-c2nc3ccc(CN4CCN(C)CC4)cc3[nH]2)cc1C#Cc1ccc(NC2CCC2)nn1
- viability at 100 µM (BaF3 [1]): 110%

SMILES: CN1CCN(Cc2ccc3nc(-c4ccc(Cl)c(C#Cc5ccc(NC6CC6)nn5)c4)[nH]c3c2)CC1
- viability at 100 µM (BaF3 [1]): 74.8%

SMILES: Cc1ccc(C(=O)Nc2ccc3c(c2)C(F)(F)C(N2CCN(C)CC2)C3)cc1C#Cc1cnc2cccnn12 (stereo not drawn)
- viability at 100 µM (BaF3 [1]): 91.5%

SMILES: Cc1ccc(C(=O)Nc2ccc3c(c2)C(F)(F)C[C@@H]3N2CCN(C)CC2)cc1C#Cc1cnc(NC2CC2)nc1
- IC50 (BaF3 [2]): 0.0124 µM
- IC50 (Jurkat): 0.28 µM
- IC50 (U-937): 0.165 µM
- IC50 (K562): 0.0006 µM
- IC50 (BaF3 [3]): 0.0035 µM
- IC50 (KU812 cell line): 0.0002 µM

SMILES: CN1CCN(Cc2ccc(NC(=O)N3CCC(C#Cc4cnc5cccnn45)C3)cc2C(F)(F)F)CC1 (stereo not drawn)
- viability at 100 µM (BaF3 [1]): 91.9%

SMILES: Cc1ccc(C(=O)Nc2ccc3c(c2)C(F)(F)C[C@@H]3N2CCN(C)CC2)cc1C#Cc1cnc2cccnn12
- AUC(0-t) at 24 h [4]: 1390 ng·h/mL
- AUC(0-inf) [5]: 1500 ng·h/mL
- Activity (Salmonella typhimurium [6]): Non-Toxic
- IC50 [7]: < 0.01 µM
- MRT [8]: 8.22 h
- Cmax [9]: 1470 ng/mL
- Activity (Salmonella typhimurium [10]): Non-Toxic
- IC50 [11]: < 0.01 µM
- Activity (Salmonella typhimurium [12]): Non-Toxic
- half-life [13]: 5.3 h
- IC50 [14]: < 0.01 µM
- Activity [15]: Non-Toxic
- AUC(0-t) at 24 h [16]: 1390 ng·h/mL
- bioavailability [17]: 32%
- Activity (Salmonella typhimurium [18]): Non-Toxic
- MRT [19]: 5.11 h
- MTD at 336 h [20]: 100 mg/kg
- half-life [21]: 4.61 h
- AUC(0-inf) [22]: 1440 ng·h/mL
- IC50 [23]: 11.1 µM
- Tmax [24]: 4.8 min
- Tmax [25]: 5 h
- clearance [26]: 62 mL/min/kg
- Activity (Salmonella typhimurium [27]): Non-Toxic
- Vd [28]: 18.1 L/kg
- IC50 [29]: < 0.01 µM
- Cmax [30]: 129 ng/mL
- IC50 [31]: < 0.01 µM

SMILES: Cc1ccc(-c2nc3ccc(CN4CCN(C)CC4)cc3[nH]2)cc1C#Cc1ccc(NC2CC2)nn1
- viability at 100 µM (BaF3 [1]): 88.9%

SMILES: Cc1ccc(-c2nc3ccc(CN4CCN(C)CC4)cc3[nH]2)cc1C#Cc1ccc(NC(C)C)nn1
- viability at 100 µM (BaF3 [1]): 96.5%

SMILES: Cc1ccc(NC(=O)c2ccc(CN3CCN(C)CC3)cc2)cc1Nc1nccc(-c2cccnc2)n1 [IMATINIB]
- IC50 (BaF3 [2]): > 0.1 µM
- IC50 (Jurkat): > 1 µM
- IC50 (U-937): > 1 µM
- IC50 (K562): 0.0829 µM
- IC50 (BaF3 [3]): > 0.1 µM
- IC50 (KU812 cell line): 0.0513 µM

SMILES: Cc1ccc(C(=O)Nc2ccc3c(c2)C(F)(F)C[C@@H]3N2CCN(C)CC2)cc1C#Cc1cnc2cccnn12.Cl
- Activity [32]: Non-Toxic
